# Earlier results in US20250258179A1, “Method for Estimating Meal Component Bioavailability” (The Texas A&M University System, priority 2024, published 2025).
# Tested on: critically ill patients
# Details: recently shown
smiles,measurement,value
"CC(C)(O)CC(=O)O [HMB, hydroxy-methylbutyric acid]",protein breakdown,reduction in protein breakdown
